Measurements as given in ChEMBL document CHEMBL1201862, “PubChem BioAssay data set” (2004).
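Grown in 96-well plates, cells were treated for 48 hours with each compound at five concentrations. Insufficient inhibition: endpoint recorded as highest concentration tested. GI50 = concentration required for 50% inhibition of growth.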 Calls of active or inactive are those of the source. Cut-off read from the data, not from the text of the source: active = GI50 up to about 1.1 µM and inactive = higher.

Assays:
Experiment in all cases: inhibition of tumour cell growth, NCI panel, 48 h
[1] = system: A549
[2] = system: ACHN
[3] = system: COLO 205
[4] = system: HOP-62
[5] = system: HOP-92
[6] = system: HT-29
[7] = system: LOX IMVI
[8] = system: LXFL 529
[9] = system: M14
[10] = system: NCI-H522
[11] = system: SK-MEL-2
[12] = system: SK-MEL-5
[13] = system: SK-OV-3
[14] = system: SNB-19
[15] = system: SR
[16] = system: SW-620
[17] = system: TK-10

| SMILES | GI50 [1] | GI50 [2] | GI50 [3] | GI50 [4] | GI50 [5] | GI50 [6] | GI50 [7] | GI50 [8] | GI50 [9] | GI50 [10] | GI50 [11] | GI50 [12] | GI50 [13] | GI50 [14] | GI50 [15] | GI50 [16] | GI50 [17] |
| --- | --- | --- | --- | --- | --- | --- | --- | --- | --- | --- | --- | --- | --- | --- | --- | --- | --- |
| CCCCOC(=O)C1C(c2ccc(Cl)cc2)NC(c2ccc(Cl)cc2)C(C(=O)OCCCC)S1(=O)=O (configuration not stated) | > 100 µM (inactive) | > 100 µM (inactive) | > 100 µM (inactive) | > 100 µM (inactive) | > 100 µM (inactive) | > 100 µM (inactive) | > 100 µM (inactive) | 69.8 µM (inactive) | > 100 µM (inactive) | > 100 µM (inactive) | > 100 µM (inactive) | > 100 µM (inactive) | > 100 µM (inactive) | > 100 µM (inactive) | > 100 µM (inactive) | > 100 µM (inactive) | > 100 µM (inactive) |
| CN(C)CCNC(=O)c1ccc(Cl)c2c(Nc3ccc(S(N)(=O)=O)cc3)c3ccccc3nc12 | 2.64 µM (inactive) | 1.67 µM (inactive) | 0.61 µM (active) | 8.45 µM (inactive) | 1.43 µM (inactive) | 1.2 µM (inactive) | 0.594 µM (active) | 0.564 µM (active) | 2.34 µM (inactive) | 0.462 µM (active) | 1.75 µM (inactive) | 2.49 µM (inactive) | 2.22 µM (inactive) | 1.84 µM (inactive) | 0.151 µM (active) | 0.173 µM (active) | 2.95 µM (inactive) |
| N=C1NC2(O)C(=O)c3ccccc3C2(O)N1 (configuration not stated) | > 100 µM (inactive) | > 100 µM (inactive) | > 100 µM (inactive) | > 100 µM (inactive) | > 100 µM (inactive) | > 100 µM (inactive) | > 100 µM (inactive) | > 100 µM (inactive) | > 100 µM (inactive) | > 100 µM (inactive) | > 100 µM (inactive) | > 100 µM (inactive) | > 100 µM (inactive) | > 100 µM (inactive) | > 100 µM (inactive) | > 100 µM (inactive) | > 100 µM (inactive) |
| COc1cc(C(=O)C/C(CCC(=O)Nc2ccc(Cl)cc2Cl)=N/Nc2nnc(C)n2N)ccc1O | > 100 µM (inactive) | > 100 µM (inactive) | > 100 µM (inactive) | > 100 µM (inactive) | > 100 µM (inactive) | > 100 µM (inactive) | > 100 µM (inactive) | > 100 µM (inactive) | > 100 µM (inactive) | > 100 µM (inactive) | > 100 µM (inactive) | > 100 µM (inactive) | > 100 µM (inactive) | > 100 µM (inactive) | > 100 µM (inactive) | > 100 µM (inactive) | > 100 µM (inactive) |
| CC1=Nc2ccccc2S(=O)(=O)N1 | > 100 µM (inactive) | > 100 µM (inactive) | > 100 µM (inactive) | > 100 µM (inactive) | > 100 µM (inactive) | > 100 µM (inactive) | > 100 µM (inactive) | > 100 µM (inactive) | > 100 µM (inactive) | > 100 µM (inactive) | > 100 µM (inactive) | > 100 µM (inactive) | > 100 µM (inactive) | > 100 µM (inactive) | > 100 µM (inactive) | > 100 µM (inactive) | > 100 µM (inactive) |
| O=C(CCN1CCN(c2ccccc2)CC1)N1CCc2c([nH]c3ccccc23)C1c1cccnc1 (configuration not stated) | 14.8 µM (inactive) | 20 µM (inactive) | 13.5 µM (inactive) | 20.8 µM (inactive) | 18.5 µM (inactive) | 15 µM (inactive) | 16.1 µM (inactive) | 16.3 µM (inactive) | 15.8 µM (inactive) | 15.4 µM (inactive) | 16.3 µM (inactive) | 14.4 µM (inactive) | 18.1 µM (inactive) | 23.3 µM (inactive) | 24.7 µM (inactive) | 17.2 µM (inactive) | 5.81 µM (inactive) |
